Data on one compound can be found in ChEMBL document CHEMBL4354793, “Current and emerging therapeutic targets of alzheimer's disease for the design of multi-target directed ligands” (Medchemcomm, 2019).

What all share (type): functional
Assay [1] concerns Rattus norvegicus. The assay can be described thus: In vivo inhibition of MAO-B in po dosed rat brain relative to control.
Assay [2] relates to Rattus norvegicus. The assay can be described thus: In vivo inhibition of AChE in po dosed rat brain relative to control.
Assay [3] has as its system Oryctolagus cuniculus. The assay can be described thus: In vivo inhibition of MAO-B in po dosed rabbit brain relative to control.
The subject of assay [4] is Oryctolagus cuniculus. Kind of assay: In vivo inhibition of AChE in po dosed rabbit brain relative to control.
Assay [5] relates to Mus musculus. The assay can be described thus: In vivo inhibition of AChE in po dosed mouse brain relative to control.
Assay [6] relates to Mus musculus. Kind of assay: In vivo inhibition of MAO-B in po dosed mouse brain relative to control.

As to `C#CCN[C@@H]1CCc2ccc(OC(=O)N(C)CC)cc21` [LADOSTIGIL], the “inhibition (INH)” value in assay [1] is given as 70 - 90%; in assay [2] it was 25 - 40%; in assay [3], 70 - 90%; in assay [4] it was 25 - 40%; in assay [5] it was 25 - 40%; in assay [6], 70 - 90%.
